Read-outs that look alike come from different tables or passages of the source.
Key:
[1] = system: prostate tissue of male Wistar rats
Procedure: 18 male Wistar rats at the age of 12-weeks-old were divided into 3 groups (test group, comparative group, and negative control group; 6 rats per group). The right inguinal region of each test group rat was incised under ether anesthesia to expose the prostate. Beneath the prostatic capsule of the right lateral lobe was injected 100 μl of sterilized 0.4 N hydrochloric acid physiological saline (a solution prepared by diluting hydrochloric acid with physiological saline to a concentration of 0.4 N, the same applies hereinbelow). The right inguinal region of each comparative group rat was incised in the same manner under ether anesthesia, and 100 μl of 0.4 N hydrochloric acid physiological saline was injected into the right vas deferens thus exposed. The peritoneum and the skin of the rats were sutured with a suture thread. To prevent operational infection, a kanamycin-containing aqueous solution was sprayed onto the site of the incision, and a physiological saline solution containing cefazolin sodium was injected into the femoral muscle in an amount of 7 mg/kg body weight. The control group refers to untreated rats (normal rats) subjected to neither an incisional operation nor hydrochloric acid injection.
The prostate, bladder and urethra were sampled from the rats of respective groups prepared in 1-1) above (test group, comparative group, and control group) to prepare tissue specimens thereof for the evaluation of change in tissue.
Specifically, the rats of the test group and the comparative group were euthanized by exsanguination under ether anesthesia 6 hours (2 rats per group), 4 days (2 rats per group), or 8 days (2 rats per group) after hydrochloric acid injection. The prostate, bladder and urethral tissues were taken out as a lump, and the tissues were fixed with 4% paraformaldehyde. The rats of the control group were subjected to the same treatment.
The frozen blocks were sliced in a cryostat to a thickness of 5 to 6 μm to prepare slide preparations of the tissue sections. The slide preparations were stained with hematoxylin-eosin (H.E), and the appearance of the tissues was observed under a microscope.
In the figures, sample code N refers to the tissue samples obtained from the control group (nonhydrochloric acid-injected rats), and sample code P refers to the tissue samples obtained from the test group (rats injected with hydrochloric acid beneath the prostatic capsules).
In the figures, sample code Y refers to tissue samples obtained from the comparative group (rats injected with hydrochloric acid into the vas deferens).

[2] = system: bladder function of male Wistar rats; settings: 8th day of rearing
[3] = 100 μl 0.4 N beneath prostatic capsule
[4] = 100 μl 0.4 N into the vas deferens, 6 hours after injection
[5] = 0.1, 0.2 and 0.4 N beneath prostatic capsule
[6] = 100 μl 0.2 N beneath prostatic capsule

SMILES: Cl [hydrochloric acid]
- urethral and bladder tissue damage extending from the prostate [1, 3]: no evidence of tissue damage
- localized bleeding and nerve cell tigrolysis in the stroma of the prostate dorsolateral lobes ([1]; 100 μl 0.4 N beneath prostatic capsule, 6 hours after injection): slight (+) to moderate (++)
- hyperplasia and fibrosis of the fibroblast, and inflammatory cellular infiltration in the stroma of the prostate dorsolateral lobes ([1]; 100 μl 0.4 N beneath prostatic capsule, 4 days after injection): moderate (++) to severe (+++)
- prostate tissue damage ([1]; 100 μl 0.4 N beneath prostatic capsule, 8 days after injection): still observable
- loss of glandular epithelial cells, peeling of epithelium, degeneration/necrosis, and presence of erythrocytes at the glandular cavities of the prostate dorsolateral lobes ([1]; 100 μl 0.4 N injected beneath prostatic capsule of right lateral lobe, 6 hours after injection): slight (+) to moderate (++) to severe (+++)
- epithalaxia in the glandular cavities of the prostate dorsolateral lobes ([1]; 100 μl 0.4 N injected into the vas deferens (comparative group), 6 hours after injection): severe (+++)
- bleeding in the stromata of the glandular tissues of the ampulla ductus deferentis [1, 4]: severe (+++)
- epithalaxia, degeneration/necrosis and bleeding in the glandular cavities of the ampulla ductus deferentis [1, 4]: severe (+++)
- localized bleeding in the stroma of the prostate dorsolateral lobes [1, 4]: severe (+++)
- prostate tissue damage ([1]; 100 μl 0.4 N into the vas deferens, 4 days after injection): did not exhibit such prostate tissue damage
- damage at the glandular tissues of the ampulla ductus deferentis ([1]; 100 μl 0.4 N into the vas deferens, at least 4 days after injection): did not exhibit such damage
- development of prostatitis, pathohistological point of view ([1]; injected into the vas deferens of rats (animal model (5))): only to a very slight extent
- correlation between concentration and change in the weight of the prostate [2, 5]: no evidence of correlation
- ratio of bladder weight to body weight compared with the control group [2, 5]: comparable or significantly higher
- ratio of prostate ventral lobe weight to body weight compared with the control group [2, 5]: comparable or significantly higher
- weight of the bladder in relation to concentration injected [2, 5]: increased in accordance with the concentration
- volume of residual urine compared with the control group ([2]; 100 μl 0.1 N beneath prostatic capsule): no residual urine
- urination interval compared with the control group [2, 6]: significantly shorter
- volume of residual urine compared with the control group [2, 6]: significantly higher
- volume of urine per urination compared with the control group [2, 6]: smaller
- urination interval compared with the control group [2, 3]: significantly shorter
- volume of urine per urination compared with the control group [2, 3]: smaller
